Assay results as given in patent US10130693B2, “Peptides, combination of peptides and scaffolds for use in immunotherapeutic treatment of various cancers” (Immatics Biotechnologies GmbH, priority 2015, dated 2018).

Columns and labels:
CD8+ T cells = assay: In vitro immunogenicity: T-cell priming with aAPCs loaded with HLA-A*24 peptide/MHC and anti-CD28, multimer staining; assay type: cell-based, human; settings: HLA-A*24 peptides; for in vitro immunogenicity, wells: positive wells after priming
Protocol: CD8+ T cells were primed using artificial APCs coated with anti-CD28 mAb and HLA-A*24 in complex with SEQ ID NO: 99 peptide (FIG. 5A, left panel), SEQ ID NO: 119 peptide (FIG. 5B, left panel), SEQ ID NO: 142 peptide (FIG. 5C, left panel) and SEQ ID NO: 174 peptide FIG. 5 (D, left panel), respectively. After three cycles of stimulation, the detection of peptide-reactive cells was performed by 2D multimer staining with A*24/SEQ ID NO: 99 (FIG. 5A), A*24/SEQ ID NO: 119 (FIG. 5B), A*24/SEQ ID NO: 142 (FIG. 5C) or A*24/SEQ ID NO: 174 (FIG. 5D). Right panels (FIGS. 5A,5B,5C and 5D) show control staining of cells stimulated with irrelevant A*24/peptide complexes. Viable singlet cells were gated for CD8+ lymphocytes. Boolean gates helped excluding false-positive events detected with multimers specific for different peptides. Frequencies of specific multimer+ cells among CD8+ lymphocytes are indicated.
Generation of pMHC/anti-CD28 coated beads, T-cell stimulations and readout was performed in a highly defined in vitro system using four different pMHC molecules per stimulation condition and 8 different pMHC molecules per readout condition.
The purified co-stimulatory mouse IgG2a anti human CD28 Ab 9.3 (Jung et al., 1987) was chemically biotinylated using Sulfo-N-hydroxysuccinimidobiotin as recommended by the manufacturer (Perbio, Bonn, Germany). Beads used were 5.6 μm diameter streptavidin coated polystyrene particles (Bangs Laboratories, Illinois, USA).
800.000 beads/200 μl were coated in 96-well plates in the presence of 4×12.5 ng different biotin-pMHC, washed and 600 ng biotin anti-CD28 were added subsequently in a volume of 200 μl. Stimulations were initiated in 96-well plates by co-incubating 1×10^6 CD8+ T cells with 2×10^5 washed coated beads in 200 μl TCM supplemented with 5 ng/ml IL-12 (PromoCell) for 3 days at 37° C. Half of the medium was then exchanged by fresh TCM supplemented with 80 U/ml IL-2 and incubating was continued for 4 days at 37° C. This stimulation cycle was performed for a total of three times. For the pMHC multimer readout using 8 different pMHC molecules per condition, a two-dimensional combinatorial coding approach was used as previously described (Andersen et al., 2012) with minor modifications encompassing coupling to 5 different fluorochromes. Finally, multimeric analyses were performed by staining the cells with Live/dead near IR dye (Invitrogen, Karlsruhe, Germany), CD8-FITC antibody clone SK1 (BD, Heidelberg, Germany) and fluorescent pMHC multimers. For analysis, a BD LSRII SORP cytometer equipped with appropriate lasers and filters was used. Peptide specific cells were calculated as percentage of total CD8+ cells. Evaluation of multimeric analysis was done using the FlowJo software (Tree Star, Oregon, USA). In vitro priming of specific multimer+CD8+ lymphocytes was detected by comparing to negative control stimulations.

HLA-A*24 = assay: MHC binding assay, UV-ligand exchange with beta2m ELISA (exchange yield), HLA-A*24; set-up: species or system human; settings: binding to HLA-A*24, UV-ligand exchange
How it was run: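 Peptide–MHC complexes formed by UV-ligand exchange: a UV-cleavable peptide is replaced by the test peptide, and only binders keep the complex stable. Exchange yield read by streptavidin-capture ELISA on reactions diluted 100-fold, detected with HRP anti-β2m (2 ug/ml, 1 h, 37° C) and TMB at 450 nm.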

## 164 (HYVPATKVF; listed as Homo sapiens) [compound 164]
CD8+ T cells
  in vitro immunogenicity, Wells positive [%]: + (<20% = +)
HLA-A*24
  Peptide exchange (MHC class I binding score, peptide exchange yield): +++ (50%-75% = +++)

## 351 (IFHEVPLKF; listed as Homo sapiens) [compound 351]
CD8+ T cells
  in vitro immunogenicity, Wells positive [%]: ++ (20%-49% = ++)
HLA-A*24
  Peptide exchange (MHC class I binding score, peptide exchange yield): +++ (50%-75% = +++)

## 400 (KYLEKYYNL; listed as Homo sapiens) [compound 400]
CD8+ T cells
  in vitro immunogenicity, wells: ++ (20%-49% = ++)

## 137 (EYLHNCSYF; listed as Homo sapiens) [compound 137]
CD8+ T cells
  in vitro immunogenicity, Wells positive [%]: + (<20% = +)
HLA-A*24
  Peptide exchange (MHC class I binding score, peptide exchange yield): ++++ (>=75% = ++++)

## 350 (KYGNFIDKL; listed as Homo sapiens) [compound 350]
CD8+ T cells
  in vitro immunogenicity, Wells positive [%]: +++ (50%-69% = +++)
HLA-A*24
  Peptide exchange (MHC class I binding score, peptide exchange yield): +++ (50%-75% = +++)

## 132 (RYPALFPVL; listed as Homo sapiens) [compound 132]
CD8+ T cells
  in vitro immunogenicity, Wells positive [%]: + (<20% = +)
HLA-A*24
  Peptide exchange (MHC class I binding score, peptide exchange yield): ++++ (>=75% = ++++)

## 140 (RYLINSYDF; listed as Homo sapiens) [compound 140]
CD8+ T cells
  in vitro immunogenicity, Wells positive [%]: +++ (50%-69% = +++)
HLA-A*24
  Peptide exchange (MHC class I binding score, peptide exchange yield): ++++ (>=75% = ++++)

## 139 (IFGIFPNQF; listed as Homo sapiens) [compound 139]
CD8+ T cells
  in vitro immunogenicity, Wells positive [%]: ++ (20%-49% = ++)
HLA-A*24
  Peptide exchange (MHC class I binding score, peptide exchange yield): +++ (50%-75% = +++)

## 353 (TYGKIDLGF; listed as Homo sapiens) [compound 353]
CD8+ T cells
  in vitro immunogenicity, Wells positive [%]: + (<20% = +)
HLA-A*24
  Peptide exchange (MHC class I binding score, peptide exchange yield): +++ (50%-75% = +++)

## 179 (TYIPVGLGRLL; listed as Homo sapiens) [compound 179]
CD8+ T cells
  in vitro immunogenicity, Wells positive [%]: +++ (50%-69% = +++)
HLA-A*24
  Peptide exchange (MHC class I binding score, peptide exchange yield): +++ (50%-75% = +++)

## 168 (RYLEAALRL; listed as Homo sapiens) [compound 168]
CD8+ T cells
  in vitro immunogenicity, Wells positive [%]: +++ (50%-69% = +++)
HLA-A*24
  Peptide exchange (MHC class I binding score, peptide exchange yield): +++ (50%-75% = +++)

## 393 (KYIEAIQWI; listed as Homo sapiens) [compound 393]
CD8+ T cells
  in vitro immunogenicity, wells: ++ (20%-49% = ++)

## 167 (RYGFYYVEF; listed as Homo sapiens) [compound 167]
CD8+ T cells
  in vitro immunogenicity, Wells positive [%]: ++++ (>=70% = ++++)
HLA-A*24
  Peptide exchange (MHC class I binding score, peptide exchange yield): +++ (50%-75% = +++)

## 158 (IYEETRGVLKVF; listed as Homo sapiens) [compound 158]
CD8+ T cells
  in vitro immunogenicity, Wells positive [%]: + (<20% = +)
HLA-A*24
  Peptide exchange (MHC class I binding score, peptide exchange yield): +++ (50%-75% = +++)

## 110 (SYPKIIEEF; listed as Homo sapiens) [compound 110]
CD8+ T cells
  in vitro immunogenicity, Wells positive [%]: ++ (20%-49% = ++)
HLA-A*24
  Peptide exchange (MHC class I binding score, peptide exchange yield): +++ (50%-75% = +++)

## 162 (KYTSYILAF; listed as Homo sapiens) [compound 162]
CD8+ T cells
  in vitro immunogenicity, Wells positive [%]: + (<20% = +)
HLA-A*24
  Peptide exchange (MHC class I binding score, peptide exchange yield): ++ (20%-49% = ++)

## 345 (EYNSDLHQFF; listed as Homo sapiens) [compound 345]
CD8+ T cells
  in vitro immunogenicity, Wells positive [%]: ++ (20%-49% = ++)
HLA-A*24
  Peptide exchange (MHC class I binding score, peptide exchange yield): +++ (50%-75% = +++)

## 358 (YYSEVPVKL; listed as Homo sapiens) [compound 358]
CD8+ T cells
  in vitro immunogenicity, Wells positive [%]: ++++ (>=70% = ++++)
HLA-A*24
  Peptide exchange (MHC class I binding score, peptide exchange yield): +++ (50%-75% = +++)

## 407 (VYGIRLEHF; listed as Homo sapiens) [compound 407]
CD8+ T cells
  in vitro immunogenicity, wells: +++ (50%-69% = +++)

## 155 (IYKWITDNF; listed as Homo sapiens) [compound 155]
CD8+ T cells
  in vitro immunogenicity, Wells positive [%]: ++ (20%-49% = ++)
HLA-A*24
  Peptide exchange (MHC class I binding score, peptide exchange yield): ++++ (>=75% = ++++)

## 104 (SYLTWHQQI; listed as Homo sapiens) [compound 104]
CD8+ T cells
  in vitro immunogenicity, Wells positive [%]: + (<20% = +)
HLA-A*24
  Peptide exchange (MHC class I binding score, peptide exchange yield): ++++ (>=75% = ++++)

## 365 (VFIDHPVHL; listed as Homo sapiens) [compound 365]
CD8+ T cells
  in vitro immunogenicity, Wells positive [%]: + (<20% = +)
HLA-A*24
  Peptide exchange (MHC class I binding score, peptide exchange yield): ++++ (>=75% = ++++)

## 360 (VFSPDGHLF; listed as Homo sapiens) [compound 360]
CD8+ T cells
  in vitro immunogenicity, Wells positive [%]: ++ (20%-49% = ++)
HLA-A*24
  Peptide exchange (MHC class I binding score, peptide exchange yield): +++ (50%-75% = +++)

## 277 (FYTFPFQQL; listed as Homo sapiens) [compound 277]
CD8+ T cells
  in vitro immunogenicity, Wells positive [%]: +++ (50%-69% = +++)
HLA-A*24
  Peptide exchange (MHC class I binding score, peptide exchange yield): +++ (50%-75% = +++)

## 367 (LYQDHMQYI; listed as Homo sapiens) [compound 367]
CD8+ T cells
  in vitro immunogenicity, Wells positive [%]: ++ (20%-49% = ++)
HLA-A*24
  Peptide exchange (MHC class I binding score, peptide exchange yield): ++ (20%-49% = ++)

## 111 (VYVQILQKL; listed as Homo sapiens) [compound 111]
CD8+ T cells
  in vitro immunogenicity, Wells positive [%]: + (<20% = +)
HLA-A*24
  Peptide exchange (MHC class I binding score, peptide exchange yield): +++ (50%-75% = +++)

## 172 (VFIFKGNEF; listed as Homo sapiens) [compound 172]
CD8+ T cells
  in vitro immunogenicity, Wells positive [%]: + (<20% = +)
HLA-A*24
  Peptide exchange (MHC class I binding score, peptide exchange yield): ++++ (>=75% = ++++)

## 190 (LYSELTETL; listed as Homo sapiens) [compound 190]
CD8+ T cells
  in vitro immunogenicity, Wells positive [%]: ++++ (>=70% = ++++)
HLA-A*24
  Peptide exchange (MHC class I binding score, peptide exchange yield): +++ (50%-75% = +++)

## 161 (KYPDIVQQF; listed as Homo sapiens) [compound 161]
CD8+ T cells
  in vitro immunogenicity, Wells positive [%]: + (<20% = +)
HLA-A*24
  Peptide exchange (MHC class I binding score, peptide exchange yield): +++ (50%-75% = +++)

## 156 (YYMELTKLLL; listed as Homo sapiens) [compound 156]
CD8+ T cells
  in vitro immunogenicity, Wells positive [%]: + (<20% = +)
HLA-A*24
  Peptide exchange (MHC class I binding score, peptide exchange yield): ++++ (>=75% = ++++)

## 114 (QYLDGTWSL; listed as Homo sapiens) [compound 114]
CD8+ T cells
  in vitro immunogenicity, Wells positive [%]: +++ (50%-69% = +++)
HLA-A*24
  Peptide exchange (MHC class I binding score, peptide exchange yield): ++++ (>=75% = ++++)

## 380 (VYTGIDHHW; listed as Homo sapiens) [compound 380]
CD8+ T cells
  in vitro immunogenicity, Wells positive [%]: + (<20% = +)
HLA-A*24
  Peptide exchange (MHC class I binding score, peptide exchange yield): ++++ (>=75% = ++++)

## 171 (NYEDHFPLL; listed as Homo sapiens) [compound 171]
CD8+ T cells
  in vitro immunogenicity, Wells positive [%]: ++ (20%-49% = ++)
HLA-A*24
  Peptide exchange (MHC class I binding score, peptide exchange yield): +++ (50%-75% = +++)

## 96 (YYTQYSQTI; listed as Homo sapiens) [compound 96]
CD8+ T cells
  in vitro immunogenicity, Wells positive [%]: + (<20% = +)
HLA-A*24
  Peptide exchange (MHC class I binding score, peptide exchange yield): ++++ (>=75% = ++++)

## 166 (FYTLPFHLI; listed as Homo sapiens) [compound 166]
CD8+ T cells
  in vitro immunogenicity, Wells positive [%]: ++++ (>=70% = ++++)
HLA-A*24
  Peptide exchange (MHC class I binding score, peptide exchange yield): ++++ (>=75% = ++++)

## 109 (LFITGGQFF; listed as Homo sapiens) [compound 109]
CD8+ T cells
  in vitro immunogenicity, Wells positive [%]: ++ (20%-49% = ++)
HLA-A*24
  Peptide exchange (MHC class I binding score, peptide exchange yield): ++++ (>=75% = ++++)

## 182 (AYAQLGYLLF; listed as Homo sapiens) [compound 182]
CD8+ T cells
  in vitro immunogenicity, Wells positive [%]: +++ (50%-69% = +++)
HLA-A*24
  Peptide exchange (MHC class I binding score, peptide exchange yield): ++++ (>=75% = ++++)

## 354 (VYNEQIRDLL; listed as Homo sapiens) [compound 354]
CD8+ T cells
  in vitro immunogenicity, Wells positive [%]: + (<20% = +)
HLA-A*24
  Peptide exchange (MHC class I binding score, peptide exchange yield): +++ (50%-75% = +++)

## 122 (EYQARIPEF; listed as Homo sapiens) [compound 122]
CD8+ T cells
  in vitro immunogenicity, Wells positive [%]: ++ (20%-49% = ++)
HLA-A*24
  Peptide exchange (MHC class I binding score, peptide exchange yield): +++ (50%-75% = +++)

## 399 (SYIDVLPEF; listed as Homo sapiens) [compound 399]
CD8+ T cells
  in vitro immunogenicity, wells: ++ (20%-49% = ++)

## 414 (MYPYIYHVL; listed as Homo sapiens) [compound 414]
CD8+ T cells
  in vitro immunogenicity, wells: ++ (20%-49% = ++)
